Data on 20 compounds can be found in US9611251B2, “Substituted piperidine compounds and their use as orexin receptor modulators” (Janssen Pharmaceutica NV, priority 2013, dated 2017).

Each structure is given as a SMILES string. pKi: −log10 of the molar value. Counter-ions that a name gives are not always drawn.

Sequence of human orexin 2 receptor (O43614 whole entry): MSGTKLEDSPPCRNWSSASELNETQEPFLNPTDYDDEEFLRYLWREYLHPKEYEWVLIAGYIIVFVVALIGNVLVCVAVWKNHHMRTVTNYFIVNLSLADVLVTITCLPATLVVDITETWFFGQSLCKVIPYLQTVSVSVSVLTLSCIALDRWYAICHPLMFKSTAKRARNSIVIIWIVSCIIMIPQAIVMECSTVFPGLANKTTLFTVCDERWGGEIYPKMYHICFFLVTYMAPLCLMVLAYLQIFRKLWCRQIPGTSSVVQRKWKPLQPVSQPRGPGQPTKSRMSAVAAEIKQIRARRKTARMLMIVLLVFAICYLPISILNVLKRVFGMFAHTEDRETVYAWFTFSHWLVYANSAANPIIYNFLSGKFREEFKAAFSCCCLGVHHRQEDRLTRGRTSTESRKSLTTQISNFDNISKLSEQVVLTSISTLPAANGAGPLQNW

The first test addresses rat orexin 1 receptor (Rattus norvegicus, UniProt P56718). The test can be described thus: Rat orexin 1 receptor radioligand binding.
Conditions: not given
The procedure: (§1) Data are analyzed using pc-Sandy macro and graphed on Graphpad Prism 5. For analysis, each concentration point is averaged from triplicate values and the averaged values are plotted on Graphpad Prism. The IC50 was determined by applying the following equation (GraphPad Prism 5.0, SanDiego) for one site competition where X=log (concentration) and Y=specific binding. Top denotes the total [^3H]-(1-(5-(2-fluoro-phenyl)-2-methyl-thiazol-4-yl)-1-((S)-2-(5-phenyl-(1,3,4)oxadiazol-2-ylmethyl)-pyrrolidin-1-yl)-methanone) binding, bottom denotes the nonspecific [^3H]-(1-(5-(2-fluoro-phenyl)-2-methyl-thiazol-4-yl)-1-((S)-2-(5-phenyl-(1,3,4)oxadiazol-2-ylmethyl)-pyrrolidin-1-yl)-methanone) binding. Graphpad Prism calculates Ki value from IC50 and the pre-determined Kd values for [^3H]-(1-(5-(2-fluoro-phenyl)-2-methyl-thiazol-4-yl)-1-((S)-2-(5-phenyl-(1,3,4)oxadiazol-2-ylmethyl)-pyrrolidin-1-yl)-methanone) and [3H]-EMPA. The Ki for each compound is then uploaded into 3DX. Each run comprises individual compounds in triplicate.
Rat and Human Orexin 1 Receptor Radioligand Binding Studies
After centrifugation (2K×G, 5 min at 4° C.), the supernatant was aspirated and the pellets frozen and stored at −80° C. […] Each cell pellet from a 15 cm plate was resuspended in 10 mL, stored on ice, and homogenized for 45 sec prior to addition to the reactions. Competition binding experiments in 96 well polypropylene plates were performed using [^3H]-(1-(5-(2-fluoro-phenyl)-2-methyl-thiazol-4-yl)-1-((S)-2-(5-phenyl-(1,3,4)oxadiazol-2-ylmethyl)-pyrrolidin-1-yl)-methanone) (Moraveck Corporation, specific activity=35.3 Ci/mmol), diluted to a 10 nM concentration in PBS (4 nM final). […] The final concentration of DMSO in the reactions is equal to or less than 0.1%. Total and nonspecific binding was determined in the absence and presence of 10 μM almorexant. The total volume of each reaction is 200 μL (20 μL of diluted compounds, 80 μL of [^3H]-(1-(5-(2-fluoro-phenyl)-2-methyl-thiazol-4-yl)-1-((S)-2-(5-phenyl-(1,3,4)oxadiazol-2-ylmethyl)-pyrrolidin-1-yl)-methanone) diluted in PBS and 100 μL of the cell suspension). […] The plates were washed 3 times by aspirating 30 ml PBS through the plates. Plates were dried in 55° C. oven for 60 min, scintillation fluid was added, and the radioactivity was counted on a Topcount (Packard).
By pKi is commonly meant the Ki on a negative log10 scale, so that one unit is a factor of ten. `Cc1ccc(-c2ncco2)c(C(=O)N2CCC[C@@H](Nc3ccc(C(F)(F)F)cn3)[C@@H]2C)n1` [Example 25, ((2S,3R)-2-methyl-3-((5-(trifluoromethyl)pyridin-2-yl)amino)piperidin-1-yl)(6-methyl-3-(oxazol-2-yl)pyridin-2-yl)methanone hydrochloride] gave a pKi of 7.92.

The test is the same for the next values; noted with them: rat orexin 1 receptor radioligand binding; averages of 2-20 runs; read-out: rOX1 Ki.
Consider `Cc1cnc(-n2nccn2)c(C(=O)N2CCC[C@@H](Oc3ncc(Cl)cn3)[C@@H]2C)c1` [Example 162, ((2S,3R)-3-((5-chloropyrimidin-2-yl)oxy)-2-methylpiperidin-1-yl)(5-methyl-2-(2H-1,2,3-triazol-2-yl)pyridin-3-yl)methanone], for which the negative-log Ki (pKi) was 6.21.
On to `Cc1ccc(C(=O)N2CCC[C@@H](Nc3nnc(C(F)(F)F)s3)[C@@H]2C)c(-n2nccn2)n1` (relative stereo) [Example 196, (6-methyl-2-(2H-1,2,3-triazol-2-yl)pyridin-3-yl)((2S*,3R*)-2-methyl-3-((5-(trifluoromethyl)-1,3,4-thiadiazol-2-yl)amino)piperidin-1-yl)methanone], for which the negative-log Ki (pKi) was 5.74.
Consider `Cc1cnc(C(=O)N2CCC[C@@H](Nc3nc4ccccc4o3)[C@@H]2C)c(-n2nccn2)c1` [Example 73, ((2S,3R)-3-(benzo[d]oxazol-2-ylamino)-2-methylpiperidin-1-yl)(5-methyl-3-(2H-1,2,3-triazol-2-yl)pyridin-2-yl)methanone], for which the pKi was 8.10.
For the compound `Cc1noc(-c2cc(F)ccc2C(=O)N2CCC[C@@H](Nc3ncc(C(F)(F)F)cn3)[C@@H]2C)n1` (relative stereo) [Example 197, (4-fluoro-2-(3-methyl-1,2,4-oxadiazol-5-yl)phenyl)((2S*,3R*)-2-methyl-3-((5-(trifluoromethyl)pyrimidin-2-yl)amino)piperidin-1-yl)methanone], the pKi is 6.48.
Regarding `Cc1cnc(C(=O)N2CCC[C@@H](Nc3nnc(C(F)(F)F)s3)[C@@H]2C)c(-n2nccn2)c1` (relative stereo) [Example 195, ((2S*,3R*)-2-methyl-3-((5-(trifluoromethyl)-1,3,4-thiadiazol-2-yl)amino)piperidin-1-yl)(5-methyl-3-(2H-1,2,3-triazol-2-yl)pyridin-2-yl)methanone], the pKi was 6.45.
As to `Cc1ccc(C(=O)N2CCC[C@@H](Nc3ccc(C(F)(F)F)cn3)[C@@H]2C)c(-n2nccn2)c1` (racemic) [Example 13, (±)-trans-(4-methyl-2-(2H-1,2,3-triazol-2-yl)phenyl)(2-methyl-3-((5-(trifluoromethyl)pyridin-2-yl)amino)piperidin-1-yl)methanone], the pKi was 7.80.

Another test concerns the target human orexin 2 receptor (Homo sapiens (Human), UniProt O43614). The test can be described thus: Human orexin 2 receptor radioligand binding ([3H]-EMPA). Conditions: averages of 2-20 runs, read-out: hOX2 Ki. The procedure:
as §1
Human Orexin 2 Receptor Radioligand Binding Studies
HEK293 stably expressing human orexin 2 receptor (Genebank accession number NM_001526) were grown to confluency in DMEM (Hyclone, cat #SH30022), 10% FBS, 1×Pen/Strep, 1× NaPyruvate, 10 mM HEPES, 600 ug/ml G418 media on 150 cm^2 tissue culture plates, washed with 5 mM EDTA in PBS (HyClone Dulbecco's Phosphate Buffered Saline 1× with Calcium and Magnesium, Cat #SH30264.01, hereafter referred to simply as PBS) and scraped into 50 ml tubes. After centrifugation (2K×G, 5 min at 4° C.), the supernatant was aspirated and the pellets frozen and stored at −80° C. […] Each cell pellet from a 15 cm plate was resuspended in 10 mL, stored on ice, and homogenized for 45 sec just prior to addition to the reactions. Competition binding experiments in 96 well polypropylene plates were performed using [^3H]-EMPA (Moraveck Corporation, specific activity=29.6 Ci/mmol), diluted to a 5 nM concentration in PBS (2 nM final concentration). […] The final concentration of DMSO in the reactions is equal to or less than 0.1%. Total and nonspecific binding was determined in the absence and presence of 10 μM almorexant. The total volume of each reaction is 200 μL (20 μL of diluted compounds, 80 μL of [^3H]-EMPA diluted in PBS and 100 μL of the cell suspension). […] The plates were washed 3 times by aspirating 30 ml PBS through the plates. Plates were dried in 55° C. oven for 60 min, scintillation fluid was added, and the radioactivity was counted on a Topcount (Packard).
`Cc1cnc(-n2nccn2)c(C(=O)N2CCC[C@@H](Oc3ncc(Cl)cn3)[C@@H]2C)c1` [Example 162, ((2S,3R)-3-((5-chloropyrimidin-2-yl)oxy)-2-methylpiperidin-1-yl)(5-methyl-2-(2H-1,2,3-triazol-2-yl)pyridin-3-yl)methanone]: the pKi is less than 5.00.
Consider `C[C@H]1[C@H](Nc2ccc(Cl)cn2)CCCN1C(=O)c1ccccc1-n1nccn1` [Example 100, (2-(2H-1,2,3-triazol-2-yl)phenyl)((2S,3R)-3-((5-chloropyridin-2-yl)amino)-2-methylpiperidin-1-yl)methanone], for which the pKi was 6.72.
On the same count and under the same terms, with `Cc1ccc(C(=O)N2CCC[C@@H](Nc3nnc(C(F)(F)F)s3)[C@@H]2C)c(-n2nccn2)n1` (relative stereo) [Example 196, (6-methyl-2-(2H-1,2,3-triazol-2-yl)pyridin-3-yl)((2S*,3R*)-2-methyl-3-((5-(trifluoromethyl)-1,3,4-thiadiazol-2-yl)amino)piperidin-1-yl)methanone] the figure was less than 5.00; with `Cc1cnc(C(=O)N2CCC[C@@H](Nc3nc4ccccc4o3)[C@@H]2C)c(-n2nccn2)c1` [Example 73, ((2S,3R)-3-(benzo[d]oxazol-2-ylamino)-2-methylpiperidin-1-yl)(5-methyl-3-(2H-1,2,3-triazol-2-yl)pyridin-2-yl)methanone], 5.64.
In the case of `Cc1ccc(C(=O)N2CCC[C@@H](Nc3nc4ccccc4o3)[C@@H]2C)c(-n2nccn2)n1` [Example 75, ((2S,3R)-3-(benzo[d]oxazol-2-ylamino)-2-methylpiperidin-1-yl)(6-methyl-2-(2H-1,2,3-triazol-2-yl)pyridin-3-yl)methanone], the pKi was 5.05.
For `C[C@H]1[C@H](Nc2ncc(C(F)(F)F)cn2)CCCN1C(=O)c1ccc(F)cc1-c1ncccn1` (relative stereo) [Example 202, (4-fluoro-2-(pyrimidin-2-yl)phenyl)((2S*,3R*)-2-methyl-3-((5-(trifluoromethyl)pyrimidin-2-yl)amino)piperidin-1-yl)methanone], the pKi was 5.82.
In the case of `C[C@H]1[C@H](Nc2ncc(C(F)(F)F)cn2)CCCN1C(=O)c1cccc(F)c1-c1ncccn1` (relative stereo) [Example 200, (3-fluoro-2-(pyrimidin-2-yl)phenyl)((2S*,3R*)-2-methyl-3-((5-(trifluoromethyl)pyrimidin-2-yl)amino)piperidin-1-yl)methanone], the pKi was 6.01.
Turning to `Cc1noc(-c2cc(F)ccc2C(=O)N2CCC[C@@H](Nc3ncc(C(F)(F)F)cn3)[C@@H]2C)n1` (relative stereo) [Example 197, (4-fluoro-2-(3-methyl-1,2,4-oxadiazol-5-yl)phenyl)((2S*,3R*)-2-methyl-3-((5-(trifluoromethyl)pyrimidin-2-yl)amino)piperidin-1-yl)methanone], the pKi was 5.18.
Still for that read-out and setting: under `Cc1ccc(-n2nccn2)c(C(=O)N2CCC[C@@H](Oc3ccc(C(F)(F)F)cn3)[C@@H]2C)n1` [Example 108, ((2S,3R)-2-methyl-3-((5-(trifluoromethyl)pyridin-2-yl)oxy)piperidin-1-yl)(6-methyl-3-(2H-1,2,3-triazol-2-yl)pyridin-2-yl)methanone] stands 6.52.
The same measure, in the same setting: with `Cc1ccc(-n2nccn2)c(C(=O)N2CCC[C@@H](Oc3ccc(C(F)(F)F)cn3)[C@@H]2C)n1` (racemic) [Example 109, (±)-trans-(2-methyl-3-((5-(trifluoromethyl)pyridin-2-yl)oxy)piperidin-1-yl)(6-methyl-3-(2H-1,2,3-triazol-2-yl)pyridin-2-yl)methanone] the figure was 6.33; with `C[C@H]1[C@H](Oc2ccc(C(F)(F)F)cn2)CCCN1C(=O)c1ncccc1-c1ncccn1` (relative stereo) [Example 210, ((2S*,3R*)-2-methyl-3-((5-(trifluoromethyl)pyridin-2-yl)oxy)piperidin-1-yl)(3-(pyrimidin-2-yl)pyridin-2-yl)methanone], 6.13.
With `Cc1cc(N[C@@H]2CCCN(C(=O)c3cc(F)ccc3-c3ncccn3)[C@H]2C)nc(C(F)(F)F)n1` (racemic) [Example 9, (±)-trans-(5-fluoro-2-(pyrimidin-2-yl)phenyl)(2-methyl-3-((6-methyl-2-(trifluoromethyl)pyrimidin-4-yl)amino)piperidin-1-yl)methanone], the pKi is 5.65.
Take `Cc1ccc(C(=O)N2CCC[C@@H](Nc3cnc(Cl)cn3)[C@@H]2C)c(-n2nccn2)c1` (relative stereo) [Example 180, ((2S*,3R*)-3-((5-chloropyrazin-2-yl)amino)-2-methylpiperidin-1-yl)(4-methyl-2-(2H-1,2,3-triazol-2-yl)phenyl)methanone]: the pKi was 5.72.
For the compound `Cc1cccc(C(=O)N2CCC[C@@H](Oc3ncc(Cl)cn3)[C@@H]2C)c1-n1nccn1` [Example 163, ((2S,3R)-3-((5-chloropyrimidin-2-yl)oxy)-2-methylpiperidin-1-yl)(3-methyl-2-(2H-1,2,3-triazol-2-yl)phenyl)methanone], the pKi is 5.98.
Turning to `Cc1ccc(-c2ncccn2)c(C(=O)N2CCC[C@@H](Nc3cc(C)nc(C(F)(F)F)n3)[C@@H]2C)c1` (racemic) [Example 7, (±)-trans-(5-methyl-2-(pyrimidin-2-yl)phenyl)(2-methyl-3-((6-methyl-2-(trifluoromethyl)pyrimidin-4-yl)amino)piperidin-1-yl)methanone], the pKi was 6.61.
Turning to `CCOc1ccc(C)nc1C(=O)N1CCC[C@@H](Nc2ccc(C(F)(F)F)cn2)[C@@H]1C` (relative stereo) [Example 194, (3-ethoxy-6-methylpyridin-2-yl)((2S*,3R*)-2-methyl-3-((5-(trifluoromethyl)pyridin-2-yl)amino)piperidin-1-yl)methanone], the pKi was 6.50.
For the compound `C[C@H]1[C@H](Nc2cnc(C(F)(F)F)cn2)CCCN1C(=O)c1cccc(F)c1-c1ncccn1` (relative stereo) [Example 207, (3-fluoro-2-(pyrimidin-2-yl)phenyl)((2S*,3R*)-2-methyl-3-((5-(trifluoromethyl)pyrazin-2-yl)amino)piperidin-1-yl)methanone], the pKi was 6.41.
